Measured values reported in ChEMBL document CHEMBL2384942, “Modulation of acridine mutagen ICR191 intercalation to DNA by methylxanthines--analysis with mathematical models” (Bioorg Med Chem, 2013).
Calls of active or inactive are those of the source. The calls are words filed in the database; no cut-off is given here.

Assays:
Salmonella typhimurium [1] = assay: Protective effect in Salmonella typhimurium TA98 assessed as decrease in ICR191-induced mutagenic effect at 0.05 to 2000 ug/plate after 4 hrs by Ames test; type: functional, organism-based; settings: Salmonella enterica subsp. enterica serovar Typhimurium
Salmonella typhimurium [2] = assay: Mutagenic activity in Salmonella typhimurium TA98 at 2 mg/plate after 4 hrs by Ames test; type: toxicity, organism-based; settings: salmonella enterica subsp. enterica serovar typhimurium
Salmonella typhimurium [3] = assay: Mutagenic activity in Salmonella typhimurium TA98 at 0.1 ug/plate after 4 hrs by Ames test; type: toxicity, organism-based; settings: salmonella enterica subsp. enterica serovar typhimurium
MDBK [4] = assay: Binding affinity to ICR191 in MDBK cells assessed as decrease in formation of mutagen-chromatin complex at 1 to 12 mM by spectrophotometric analysis; type: cell-based
MDBK [5] = assay: Binding affinity to ICR191 in MDBK cells assessed as decrease in molar fraction of free mutagen at 1 to 12 mM by spectrophotometric analysis; type: cell-based

SMILES: CC(=O)CCCCn1c(=O)c2c(ncn2C)n(C)c1=O [PENTOXIFYLLINE]
- Activity (Salmonella typhimurium [1]): Active
- Activity (Salmonella typhimurium [2]): Non-toxic

SMILES: COc1ccc2nc3cc(Cl)ccc3c(NCCCNCCCl)c2c1.Cl.Cl.Cl.Cl
- Activity (Salmonella typhimurium [3]): Non-toxic

SMILES: Cn1c(=O)c2c(ncn2C)n(C)c1=O
- Activity (MDBK [4]): Active
- Activity (MDBK [5]): Active
